# In PubChem BioAssay (NCI):
# “And” between values parts separate entries of the source, which are not always exact repeats. Identical values can stand only once.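 In this assay, cells in 96-well plates receive the compound at five concentrations for 48 hours. Endpoints are linearly interpolated between the surrounding concentrations. The concentration for 50% growth inhibition is given as GI50. TGI is the concentration that stops growth completely.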
# Test system: OVCAR-8 ovarian
# Experiment: inhibition of tumour cell growth, NCI panel, 48 h
Compound,TGI [µM],GI50 [µM]
COc1ccc2c(-c3cc4ccccc4o3)cc(=O)oc2c1,> 100,–
O=C(Nc1cc(-c2ccccc2)[nH]n1)c1ccc(Cl)cc1,> 100,24.2
CCCSc1cc(Cl)nc(N)n1,> 100,> 100
CN1CCN(Cc2ccc(NC(=O)c3ccc(C(C)(C)C)c(C#Cc4cnc5cccnn45)c3)cc2C(F)(F)F)CC1,5.61,2.58
C=CC(=O)N1CCN(c2ncnc3c(F)c(-c4c(O)cccc4F)c(Cl)cc23)CC1,67,19.3
C=CCOc1c(Br)cc(Br)cc1Br,> 100,28.2
CC(=O)n1c(-c2ccc(Cl)cc2)nc2c(c1=O)C(c1ccc(Cl)cc1)c1sc3c(Cl)cccc3c1O2 (centres undefined),3.02,0.626
CN(C)CCNC(=O)Nc1c(C#N)[n+]([O-])c2cc(Cl)c(Cl)cc2[n+]1[O-],> 100,21.4
COc1ccccc1C(=O)c1ccc2ccccc2c1,75.9,–
CS(=O)(=O)Nc1ccc(-c2ccc3c(NC(=O)C4CC4)n[nH]c3c2)cc1,> 25,> 25
C=C1C(=O)O[C@H]2[C@H]1CC/C(COC(=O)c1cc3cc(OC)ccc3[nH]1)=C\CC[C@@]1(C)O[C@@H]21,3.37,1.58
COCC(=O)OC1CCn2c1nc1c2C(=O)C(C)=C(NC(C)=O)C1=O (centres undefined),12,2.92
COc1ccc(C2C(C#N)=C(N)OC3=C2CCCc2ccc(F)cc23)cc1OC (centres undefined),53.5,21.4

# Test system: SK-MEL-2 melanoma
# Experiment: inhibition of tumour cell growth, NCI panel, 48 h
Compound,TGI [µM],GI50 [µM]
COc1ccc2c(-c3cc4ccccc4o3)cc(=O)oc2c1,> 100,–
O=C(Nc1cc(-c2ccccc2)[nH]n1)c1ccc(Cl)cc1,> 100,6.97
CCCSc1cc(Cl)nc(N)n1,> 100,> 100
CN1CCN(Cc2ccc(NC(=O)c3ccc(C(C)(C)C)c(C#Cc4cnc5cccnn45)c3)cc2C(F)(F)F)CC1,22.5,8.8
C=CC(=O)N1CCN(c2ncnc3c(F)c(-c4c(O)cccc4F)c(Cl)cc23)CC1,35,15
C=CCOc1c(Br)cc(Br)cc1Br,> 100,> 100
CC(=O)n1c(-c2ccc(Cl)cc2)nc2c(c1=O)C(c1ccc(Cl)cc1)c1sc3c(Cl)cccc3c1O2 (centres undefined),2.15,0.482
CN(C)CCNC(=O)Nc1c(C#N)[n+]([O-])c2cc(Cl)c(Cl)cc2[n+]1[O-],50.6,15.9
COc1ccccc1C(=O)c1ccc2ccccc2c1,37.5,–
CS(=O)(=O)Nc1ccc(-c2ccc3c(NC(=O)C4CC4)n[nH]c3c2)cc1,> 25,> 18.5
C=C1C(=O)O[C@H]2[C@H]1CC/C(COC(=O)c1cc3cc(OC)ccc3[nH]1)=C\CC[C@@]1(C)O[C@@H]21,3.05,1.6
COCC(=O)OC1CCn2c1nc1c2C(=O)C(C)=C(NC(C)=O)C1=O (centres undefined),13.5,5.34
COc1ccc(C2C(C#N)=C(N)OC3=C2CCCc2ccc(F)cc23)cc1OC (centres undefined),57.9,21.2

# Test system: HOP-92 NSCLC
# Experiment: inhibition of tumour cell growth, NCI panel, 48 h
Compound,TGI,GI50 [µM]
COc1ccc2c(-c3cc4ccccc4o3)cc(=O)oc2c1,75.3 µM,–
O=C(Nc1cc(-c2ccccc2)[nH]n1)c1ccc(Cl)cc1,> 100 µM,37.1
CCCSc1cc(Cl)nc(N)n1,> 100 µM,14.8
CN1CCN(Cc2ccc(NC(=O)c3ccc(C(C)(C)C)c(C#Cc4cnc5cccnn45)c3)cc2C(F)(F)F)CC1,27.1 µM,12.1
C=CC(=O)N1CCN(c2ncnc3c(F)c(-c4c(O)cccc4F)c(Cl)cc23)CC1,33.6 µM,12.8
C=CCOc1c(Br)cc(Br)cc1Br,> 100 µM,35.6
CC(=O)n1c(-c2ccc(Cl)cc2)nc2c(c1=O)C(c1ccc(Cl)cc1)c1sc3c(Cl)cccc3c1O2 (centres undefined),4.61 µM,1.27
CN(C)CCNC(=O)Nc1c(C#N)[n+]([O-])c2cc(Cl)c(Cl)cc2[n+]1[O-],99 µM,18.1
COc1ccccc1C(=O)c1ccc2ccccc2c1,66.5 µM,–
CS(=O)(=O)Nc1ccc(-c2ccc3c(NC(=O)C4CC4)n[nH]c3c2)cc1,> 25 µM,> 25
C=C1C(=O)O[C@H]2[C@H]1CC/C(COC(=O)c1cc3cc(OC)ccc3[nH]1)=C\CC[C@@]1(C)O[C@@H]21,1.83 µM,0.445
COCC(=O)OC1CCn2c1nc1c2C(=O)C(C)=C(NC(C)=O)C1=O (centres undefined),2.95 µM and 4.62 µM,1.38
COc1ccc(C2C(C#N)=C(N)OC3=C2CCCc2ccc(F)cc23)cc1OC (centres undefined),42.4 µM,17.1

# Test system: M14 melanoma
# Experiment: inhibition of tumour cell growth, NCI panel, 48 h
Compound,TGI [µM],GI50 [µM]
COc1ccc2c(-c3cc4ccccc4o3)cc(=O)oc2c1,> 100,–
O=C(Nc1cc(-c2ccccc2)[nH]n1)c1ccc(Cl)cc1,> 100,8.66
CCCSc1cc(Cl)nc(N)n1,> 100,> 100
CN1CCN(Cc2ccc(NC(=O)c3ccc(C(C)(C)C)c(C#Cc4cnc5cccnn45)c3)cc2C(F)(F)F)CC1,3.44,1.8
C=CC(=O)N1CCN(c2ncnc3c(F)c(-c4c(O)cccc4F)c(Cl)cc23)CC1,28.9,12.6
C=CCOc1c(Br)cc(Br)cc1Br,> 100,19.6
CC(=O)n1c(-c2ccc(Cl)cc2)nc2c(c1=O)C(c1ccc(Cl)cc1)c1sc3c(Cl)cccc3c1O2 (centres undefined),1.24,0.3
CN(C)CCNC(=O)Nc1c(C#N)[n+]([O-])c2cc(Cl)c(Cl)cc2[n+]1[O-],> 100,21.9
COc1ccccc1C(=O)c1ccc2ccccc2c1,58.1,–
CS(=O)(=O)Nc1ccc(-c2ccc3c(NC(=O)C4CC4)n[nH]c3c2)cc1,> 25,24.9
C=C1C(=O)O[C@H]2[C@H]1CC/C(COC(=O)c1cc3cc(OC)ccc3[nH]1)=C\CC[C@@]1(C)O[C@@H]21,2.98,1.27
COCC(=O)OC1CCn2c1nc1c2C(=O)C(C)=C(NC(C)=O)C1=O (centres undefined),21.7,–
COc1ccc(C2C(C#N)=C(N)OC3=C2CCCc2ccc(F)cc23)cc1OC (centres undefined),41.8,19.9

# Test system: EKVX NSCLC
# Experiment: inhibition of tumour cell growth, NCI panel, 48 h
Compound,TGI [µM],GI50 [µM]
COc1ccc2c(-c3cc4ccccc4o3)cc(=O)oc2c1,> 100,–
O=C(Nc1cc(-c2ccccc2)[nH]n1)c1ccc(Cl)cc1,> 100,> 100
CCCSc1cc(Cl)nc(N)n1,> 100,> 100
CN1CCN(Cc2ccc(NC(=O)c3ccc(C(C)(C)C)c(C#Cc4cnc5cccnn45)c3)cc2C(F)(F)F)CC1,19.3,5.8
C=CC(=O)N1CCN(c2ncnc3c(F)c(-c4c(O)cccc4F)c(Cl)cc23)CC1,28.9,15.1
C=CCOc1c(Br)cc(Br)cc1Br,> 100,10.3
CC(=O)n1c(-c2ccc(Cl)cc2)nc2c(c1=O)C(c1ccc(Cl)cc1)c1sc3c(Cl)cccc3c1O2 (centres undefined),3.71,0.926
CN(C)CCNC(=O)Nc1c(C#N)[n+]([O-])c2cc(Cl)c(Cl)cc2[n+]1[O-],> 100,36.8
COc1ccccc1C(=O)c1ccc2ccccc2c1,77.8,–
CS(=O)(=O)Nc1ccc(-c2ccc3c(NC(=O)C4CC4)n[nH]c3c2)cc1,> 25,> 25
C=C1C(=O)O[C@H]2[C@H]1CC/C(COC(=O)c1cc3cc(OC)ccc3[nH]1)=C\CC[C@@]1(C)O[C@@H]21,3.1,1.5
COCC(=O)OC1CCn2c1nc1c2C(=O)C(C)=C(NC(C)=O)C1=O (centres undefined),20.3,3.75
COc1ccc(C2C(C#N)=C(N)OC3=C2CCCc2ccc(F)cc23)cc1OC (centres undefined),37.5,10.1
